Source: patent US8003658B2, “Quinazoline derivatives for inhibiting cancer cell growth and method for the preparation thereof” (Hanmi Holdings Co., Ltd., priority 2004, dated 2011)
pIC50: −log10 of the molar value. Like-named read-outs stand apart in the source and are kept apart here.

Tests used:
A431 (ATCC: CRL-1555) = experiment: Test of cancer cell growth inhibition (SRB), A431; conditions: read-out: IC50 A431
SK-Br3 (ATCC: HTB-30) = experiment: Test of cancer cell growth inhibition (SRB), SK-Br3; conditions: read-out: IC50 SK-Br-3
SW-620 (ATCC: CCL-227) = experiment: Test of cancer cell growth inhibition (SRB), SW-620; conditions: read-out: IC50 SW-620
[1] = EGFR overexpressed A431, 72 hours, SRB
[2] = Erb-B2 overexpressed SK-Br3, 72 hours, SRB

Molecule | pIC50 (A431 (ATCC: CRL-1555); Homo sapiens, A-431, 72 h) | pIC50 (SK-Br3 (ATCC: HTB-30); Homo sapiens, SK-BR-3, 72 h) | pIC50 (SW-620 (ATCC: CCL-227); Homo sapiens, SW-620, 72 h) | pIC50 (A431 (ATCC: CRL-1555); [1]) | pIC50 (SK-Br3 (ATCC: HTB-30); [2]) | pIC50 (SW-620 (ATCC: CCL-227); SW-620 not having overexpressed EGFR and Erb-B2, 72 hours, SRB)
COCC(=O)NCC(=O)Nc1ccc2ncnc(Nc3ccc(OCc4cccc(F)c4)c(Cl)c3)c2c1 [Example 2-4, N-({4-[3-chloro-4-(3-fluoro-benzyloxy)-phenylamino]-quinazolin-6-ylcarbamoyl}-methyl)-2-methoxy-acetamide] | 6.69 | 6.61 | < 5.00 | – | – | –
C=CC(=O)NCC(=O)Nc1ccc2ncnc(Nc3ccc(OCc4cccc(F)c4)c(Cl)c3)c2c1 [Example 4, N-({4-[3-chloro-4-(3-fluoro-benzyloxy)-phenylamino]-quinazolin-6-ylcarbamoyl}-methyl)-acrylamide] | 6.75 | 8.00 | < 5.00 | – | – | –
COCC(=O)N[C@@H](Cc1ccccc1)C(=O)Nc1ccc2ncnc(Nc3ccc(OCc4cccc(F)c4)c(Cl)c3)c2c1 [Example 5-3, (2S)—N-{4-[3-chloro-4-(3-fluoro-benzyloxy)-phenylamino]-quinazolin-6-yl}-2-(2-methoxy-acetylamino)-3-phenyl-propionamide] | 6.50 | 6.97 | < 5.00 | – | – | –
C=CC(=O)N[C@@H](CCSC)C(=O)Nc1ccc2ncnc(Nc3ccc(OCc4cccc(F)c4)c(Cl)c3)c2c1 [Example 9, (2S)-2-acryloylamino-N-{4-[3-chloro-4-(3-fluoro-benzyloxy)-phenylamino]-quinazolin-6-yl}-4-methanesulfanyl-butyramide] | – | – | – | 7.22 | 8.15 | < 5.00
C=CC(=O)N1CCCC1C(=O)Nc1ccc2ncnc(Nc3ccc(OCc4cccc(F)c4)c(Cl)c3)c2c1 (stereo not drawn) [Example 18, 1-acryloyl-pyrrolidine-2-carboxylic acid {4-[3-chloro-4-(3-fluoro-benzyloxy)-phenylamino]-quinazolin-6-yl}-amide] | 6.80 | 6.54 | < 5.00 | – | – | –
CS(=O)(=O)CC(=O)NCCC(=O)Nc1ccc2ncnc(Nc3ccc(OCc4cccc(F)c4)c(Cl)c3)c2c1 [Example 21, N-{4-[3-chloro-4-(3-fluoro-benzyloxy)-phenylamino]-quinazolin-6-yl}-3-(2-methanesulfonyl-acetylamino)-propionamide] | 6.34 | 7.80 | < 5.00 | – | – | –
C=CC(=O)N1CCCCC1C(=O)Nc1cc2c(Nc3ccc(OCc4ccccn4)c(Cl)c3)ncnc2cc1OC (stereo not drawn) [Example 196, 1-acryloyl-piperidine-2-carboxylic acid {4-[3-chloro-4-(pyridin-2-ylmethoxy)-phenylamino]-7-methoxy-quinazolin-6-yl}-amide] | 7.06 | 7.60 | – | – | – | –
C=CC(=O)N1CCC(C(=O)Nc2cc3c(Nc4ccc(OCc5ccccn5)c(Cl)c4)ncnc3cc2OC)CC1 [Example 197, 1-acryloyl-piperidine-4-carboxylic acid {4-[3-chloro-4-(pyridin-2-ylmethoxy)-phenylamino]-7-methoxy-quinazolin-6-yl}-amide] | 6.59 | 6.71 | – | – | – | –
C=CC(=O)N1CCC(C(=O)Nc2cc3c(Nc4ccc(OCc5ccccn5)c(Cl)c4)ncnc3cc2OC)C1 (stereo not drawn) [Example 198, 1-acryloyl-pyrrolidine-3-carboxylic acid {4-[3-chloro-4-(pyridin-2-ylmethoxy)-phenylamino]-7-methoxy-quinazolin-6-yl}-amide] | 7.33 | 7.62 | – | – | – | –
C=CC(=O)N1CCC1C(=O)Nc1cc2c(Nc3ccc(OCc4ccccn4)c(Cl)c3)ncnc2cc1OCC (stereo not drawn) [Example 199, 1-acryloyl-azetidine-2-carboxylic acid {4-[3-chloro-4-(pyridin-2-ylmethoxy)-phenylamino]-7-ethoxy-quinazolin-6-yl}-amide] | 6.84 | 7.02 | – | – | – | –
C=CC(=O)N1CC(C(=O)Nc2cc3c(Nc4ccc(OCc5ccccn5)c(Cl)c4)ncnc3cc2OC)C1 [Example 200, 1-acryloyl-azetidine-3-carboxylic acid {4-[3-chloro-4-(pyridin-2-ylmethoxy)-phenylamino]-7-methoxy-quinazolin-6-yl}-amide] | 6.48 | 8.10 | – | – | – | –
C=CC(=O)N1CCC[C@H](C(=O)Nc2cc3c(Nc4ccc(OCc5ccccn5)c(Cl)c4)ncnc3cc2OC)C1 [Example 201, (3S)-1-acryloyl-piperidine-3-carboxylic acid {4-[3-chloro-4-(pyridin-2-ylmethoxy)-phenylamino]-7-methoxy-quinazolin-6-yl}-amide] | 6.83 | 7.60 | – | – | – | –
C=CC(=O)N(CC)[C@@H](C)C(=O)Nc1cc2c(Nc3ccc(OCc4ccccn4)c(Cl)c3)ncnc2cc1OC [Example 202, N-((1S)-1-{4-[3-chloro-4-(pyridin-2-ylmethoxy)-phenylamino]-7-methoxy-quinazolin-6-ylcarbamoyl}-ethyl)-N-ethyl-acrylamide] | 6.98 | 8.22 | – | – | – | –
C=CC(=O)N1CCC[C@H]1C(=O)Nc1cc2c(Nc3ccc(OCCF)c(Cl)c3)ncnc2cc1OC [Example 203, (2S)-1-acryloyl-pyrrolidine-2-carboxylic acid {4-[3-chloro-4-(2-fluoro-ethoxy)-phenylamino]-7-methoxy-quinazolin-6-yl}-amide] | 6.57 | 7.47 | – | – | – | –
C=CC(=O)N1CCC[C@H]1C(=O)Nc1cc2c(Nc3ccc(OCc4cccnc4)c(Cl)c3)ncnc2cc1OC [Example 204, (2S)-1-acryloyl-pyrrolidine-2-carboxylic acid {4-[3-chloro-4-(pyridin-3-ylmethoxy)-phenylamino]-7-methoxy-quinazolin-6-yl}-amide] | 7.07 | 7.52 | – | – | – | –
C=CC(=O)NCC(F)C(=O)Nc1cc2c(Nc3ccc(OCc4ccccn4)c(Cl)c3)ncnc2cc1OC (stereo not drawn) [Example 206, N-(2-{4-[3-chloro-4-(pyridin-2-ylmethoxy)-phenylamino]-7-methoxy-quinazolin-6-ylcarbamoyl}-2-fluoro-ethyl)-acrylamide] | 7.77 | 8.00 | – | – | – | –
C=CC(=O)N1CCC[C@H]1C(=O)Nc1cc2c(Nc3ccc(OCc4cccnc4)c(Cl)c3)ncnc2cc1OCCCN1CCOCC1 [Example 209, (2S)-1-acryloyl-pyrrolidine-2-carboxylic acid {4-[3-chloro-4-(pyridin-3-ylmethoxy)-phenylamino]-7-(3-morpholin-4-yl-propoxy)-quinazolin-6-yl}-amide] | 7.36 | 8.52 | – | – | – | –
C=CC(=O)N[C@@H](C)CC(=O)Nc1cc2c(Nc3ccc(OCc4ccccn4)c(Cl)c3)ncnc2cc1OC [Example 212, (3S)-3-acryloylamino-N-{4-[3-chloro-4-(pyridin-2-ylmethoxy)-phenylamino]-7-methoxy-quinazolin-6-yl}-butyramide] | 7.01 | 8.05 | – | – | – | –
C=CC(=O)N1CCC[C@H]1C(=O)Nc1cc2c(Nc3ccc(OCc4ccccn4)c(Cl)c3)ncnc2cc1OCCOC [Example 213, (2S)-1-acryloyl-pyrrolidine-2-carboxylic acid {4-[3-chloro-4-(pyridin-2-ylmethoxy)-phenylamino]-7-(2-methoxyethoxy)-quinazolin-6-yl}-amide] | 7.47 | 8.40 | – | – | – | –
C=CC(=O)N[C@@H](C)C(=O)Nc1cc2c(Nc3ccc(OCc4cccc(F)c4)c(Cl)c3)ncnc2cc1OCCOC [Example 214, (1S)—N-(1-{4-[3-chloro-4-(3-fluoro-benzyloxy)-phenylamino]-7-(2-methoxyethoxy)-quinazolin-6-ylcarbamoyl}-ethyl)-acrylamide] | 7.66 | 8.22 | – | – | – | –
C=CC(=O)N1CCC[C@H]1C(=O)Nc1cc2c(Nc3ccc(OCc4cccc(F)c4)c(Cl)c3)ncnc2cc1OCCOC [Example 215, (2S)-1-acryloyl-pyrrolidine-2-carboxylic acid {4-[3-chloro-4-(3-fluoro-benzyloxy)-phenylamino]-7-(2-methoxyethoxy)-quinazolin-6-yl}-amide] | 7.23 | 7.96 | – | – | – | –
C=CC(=O)N[C@@H](C)C(=O)Nc1cc2c(Nc3ccc(OCc4ccccn4)c(Cl)c3)ncnc2cc1OCCCOC [Example 220, (1S)—N-(1-{4-[3-chloro-4-(pyridin-2-ylmethoxy)-phenylamino]-7-(3-methoxypropoxy)-quinazolin-6-ylcarbamoyl}-ethyl)-acrylamide] | 7.66 | 7.68 | – | – | – | –
C=CC(=O)N[C@H](C(=O)Nc1ccc2ncnc(Nc3ccc(OCc4ccccn4)c(Cl)c3)c2c1)C(C)C [Example 224, (2S)-2-acryloylamino-N-{4-[3-chloro-4-(pyridin-2-ylmethoxy)-phenylamino]-quinazolin-6-yl}-3-methyl-butyramide] | 7.31 | 7.92 | – | – | – | –
C=CC(=O)N[C@@H](CC(C)C)C(=O)Nc1ccc2ncnc(Nc3ccc(OCc4ccccn4)c(Cl)c3)c2c1 [Example 225, (2S)-2-acryloylamino-4-methyl-pentanoic acid {4-[3-chloro-4-(pyridin-2-ylmethoxy)-phenylamino]-quinazolin-6-yl}-amide] | 7.38 | 7.68 | – | – | – | –
(2S)-2-acryloylamino-N-{4-[3-chloro-4-(3-fluoro-benzyloxy)-phenylamino]-7-(2-methoxyethoxy)-quinazolin-6-yl}-4-methylsulfanyl-butyramide [Example 222] | – | – | – | 7.60 | 8.05 | –
(2S)-2-acryloylamino-N-{4-[3-chloro-4-(3-fluoro-benzyloxy)-phenylamino]-7-methoxy-quinazolin-6-yl}-4-methanesulfinyl-butyramide [Example 223] | – | – | – | 7.27 | 7.49 | –
(2S)-2-acryloylamino-N-{4-[3-chloro-4-(3-fluoro-benzyloxy)-phenylamino]-7-methoxy-quinazolin-6-yl}-4-methylsulfanyl-butyramide [Example 221] | – | – | – | 7.55 | 7.64 | –
